Results taken from ChEMBL document CHEMBL5038666, “Discovery of DNA-Targeting HDAC Inhibitors with Potent Antitumor Efficacy In Vivo That Trigger Antitumor Immunity” (J Med Chem, 2022).
pIC50: −log10 of the molar value. Active and inactive are the calls of the source. The calls are words filed in the database; no cut-off is given here.

Columns and labels:
Histone deacetylase = assay: Inhibition of HDAC in human HeLa nuclear extract using fluorogenic substrate incubated for 30 mins by fluorescence based assay; type: cell-based
KG-1 [1] = assay: Antiproliferative activity against human KG-1 cells assessed as inhibition of cell growth measured after 48 hrs by MTT assay; type: functional, cell-based; conditions: KG-1, 48 h
HEL = assay: cells; type: functional, cell-based; conditions: Homo sapiens, 48 h
Description: Antiproliferative activity against HEL cells assessed as inhibition of cell growth measured after 48 hrs by MTT assay

Histone deacetylase 2 = Histone deacetylase 2 (Homo sapiens, UniProt Q92769); assay: Inhibition of HDAC2 (unknown origin) using fluorogenic substrate incubated for 30 mins by fluorescence based assay
[2] = target: T1, Protein deacetylase HDAC6 (Homo sapiens, UniProt Q9UBN7); assay: Inhibition of HDAC6 (unknown origin) using fluorogenic substrate incubated for 30 mins by fluorescence based assay
T1 sequence (Q9UBN7 whole entry): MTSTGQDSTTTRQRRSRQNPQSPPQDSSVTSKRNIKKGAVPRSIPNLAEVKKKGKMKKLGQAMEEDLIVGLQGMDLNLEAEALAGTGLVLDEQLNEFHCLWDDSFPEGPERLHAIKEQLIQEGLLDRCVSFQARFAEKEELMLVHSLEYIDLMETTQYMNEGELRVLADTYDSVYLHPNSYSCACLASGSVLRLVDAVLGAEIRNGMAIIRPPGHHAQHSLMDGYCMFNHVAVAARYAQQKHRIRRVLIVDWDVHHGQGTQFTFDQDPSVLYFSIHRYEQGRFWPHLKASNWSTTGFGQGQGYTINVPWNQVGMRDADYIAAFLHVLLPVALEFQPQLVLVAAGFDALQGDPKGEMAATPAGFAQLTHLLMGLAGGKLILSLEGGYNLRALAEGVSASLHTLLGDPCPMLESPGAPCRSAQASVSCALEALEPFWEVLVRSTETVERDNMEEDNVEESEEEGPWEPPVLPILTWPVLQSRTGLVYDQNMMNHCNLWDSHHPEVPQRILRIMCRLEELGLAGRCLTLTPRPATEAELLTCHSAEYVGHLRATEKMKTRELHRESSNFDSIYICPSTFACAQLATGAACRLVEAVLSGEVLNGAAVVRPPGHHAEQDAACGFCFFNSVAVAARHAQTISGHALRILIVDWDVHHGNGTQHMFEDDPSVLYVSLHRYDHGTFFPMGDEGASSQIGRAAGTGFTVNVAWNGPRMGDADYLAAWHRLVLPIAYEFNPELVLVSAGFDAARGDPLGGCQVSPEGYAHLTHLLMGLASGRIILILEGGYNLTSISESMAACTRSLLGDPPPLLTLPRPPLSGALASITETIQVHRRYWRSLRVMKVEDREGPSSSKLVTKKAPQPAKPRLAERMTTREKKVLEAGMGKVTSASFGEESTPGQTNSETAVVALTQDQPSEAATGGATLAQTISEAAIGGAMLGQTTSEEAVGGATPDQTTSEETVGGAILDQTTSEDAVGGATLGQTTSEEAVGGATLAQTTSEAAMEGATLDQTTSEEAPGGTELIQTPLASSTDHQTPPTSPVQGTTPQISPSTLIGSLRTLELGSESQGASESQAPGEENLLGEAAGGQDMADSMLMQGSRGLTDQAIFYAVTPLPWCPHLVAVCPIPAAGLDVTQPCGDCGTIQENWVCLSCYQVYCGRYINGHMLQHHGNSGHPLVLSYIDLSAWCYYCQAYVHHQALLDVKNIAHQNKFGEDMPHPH

Histone deacetylase 1 = Histone deacetylase 1 (Homo sapiens, UniProt Q13547); assay: Inhibition of HDAC1 (unknown origin) using fluorogenic substrate incubated for 30 mins by fluorescence based assay
HepG2 = assay: cells; type: functional, cell-based; conditions: Homo sapiens, HepG2, 48 h
Description: Antiproliferative activity against human HepG2 cells assessed as inhibition of cell growth measured after 48 hrs by MTT assay

K562 = assay: cells; type: functional, cell-based; conditions: Homo sapiens, K562, 48 h
Description: Antiproliferative activity against human K562 cells assessed as inhibition of cell growth measured after 48 hrs by MTT assay

PC-3 = assay: cells; type: functional, cell-based; conditions: Homo sapiens, PC-3, 48 h
Description: Antiproliferative activity against human PC3 cells assessed as inhibition of cell growth measured after 48 hrs by MTT assay

Histone deacetylase 8 = target: T2, Histone deacetylase 8 (Homo sapiens, UniProt Q9BY41); assay: Inhibition of HDAC8 (unknown origin) using fluorogenic substrate incubated for 30 mins by fluorescence based assay
T2 sequence (Q9BY41 whole entry): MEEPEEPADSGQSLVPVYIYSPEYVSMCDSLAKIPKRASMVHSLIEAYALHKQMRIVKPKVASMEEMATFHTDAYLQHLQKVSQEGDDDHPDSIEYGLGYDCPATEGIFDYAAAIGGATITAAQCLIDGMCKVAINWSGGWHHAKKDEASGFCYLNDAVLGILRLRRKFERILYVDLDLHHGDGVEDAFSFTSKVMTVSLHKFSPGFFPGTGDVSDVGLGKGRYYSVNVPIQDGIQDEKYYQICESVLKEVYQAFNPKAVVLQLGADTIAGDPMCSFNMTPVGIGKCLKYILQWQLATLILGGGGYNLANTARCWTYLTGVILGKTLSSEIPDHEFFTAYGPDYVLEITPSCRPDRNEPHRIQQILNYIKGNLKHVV

[3] = Toxicity in C57BL/6J mouse implanted with mouse B16-F10 cells assessed as heart damage at 60 mg/kg, IG administered for 12 days H and E staining based histopathological analysis; type: organism-based; conditions: in vivo, po, 288 h, time 12 day
B16-F10 [4] = assay: Antitumor activity against mouse B16-F10 cells xenografted in C57BL/6J mouse assessed as change in tumor cell morphology into normal tissue at 60 mg/kg, IG administered for 12 days by H and E staining based histopathological analysis; type: functional, organism-based; conditions: time 12.0 day
KG-1 [5] = assay: Downregulation of SSRP-1 expression in human KG-1 cells assessed as chromatin damage at 0.5 to […] measured after 24 hrs by Western blot analysis; type: functional, cell-based; conditions: dose 0.5-2.5 µM
B16-F10 [6] = assay: Antitumor activity against mouse B16-F10 cells implanted in C57BL/6J mouse assessed as reduction on tumor volume at 60 mg/kg, IG administered for 12 days; type: functional, organism-based; conditions: time 12.0 day
B16-F10 [7] = assay: Antitumor activity against mouse B16-F10 cells implanted in C57BL/6J mouse assessed as reduction on tumor weight at 60 mg/kg, IG administered for 12 days; type: functional, organism-based; conditions: time 12.0 day
KG-1 [8] = assay: Downregulation of SPT16 expression in human KG-1 cells assessed as chromatin damage at 0.5 to […] measured after 24 hrs by Western blot analysis; type: functional, cell-based; conditions: dose 0.5-2.5 µM
[9] = Toxicity in C57BL/6J mouse implanted with mouse B16-F10 cells assessed as spleen damage at 60 mg/kg, IG administered for 12 days H and E staining based histopathological analysis; type: organism-based; conditions: in vivo, po, 288 h, time 12 day
[10] = Toxicity in C57BL/6J mouse implanted with mouse B16-F10 cells assessed as glomerular structure damage in kidney at 60 mg/kg, IG administered for 12 days H and E staining based histopathological analysis; type: organism-based; conditions: in vivo, po, 288 h, time 12 day
KG-1 [11] = assay: Induction of apoptosis in human KG-1 cells assessed as total apoptotic cells at 1 uM measured after 24 hrs by Annexin V-FITC/propidium iodide staining based flow cytometry analysis relative to control; type: functional
B16-F10 [12] = assay: Antitumor immunity against mouse B16-F10 cells implanted in C57BL/6J mouse assessed as increase in proportion of T cells in spleen by flow cytometry analysis; type: functional, cell-based
B16-F10 [13] = assay: Antitumor activity against mouse B16-F10 cells implanted in C57BL/6J mouse assessed as reduction on tumor size at 60 mg/kg, IG administered for 12 days; type: functional, organism-based; conditions: time 12.0 day
[14] = Toxicity in C57BL/6J mouse implanted with mouse B16-F10 cells assessed as effect on body weight at 60 mg/kg, IG administered for 12 days; type: organism-based; conditions: in vivo, po, 288 h, time 12 day
[15] = Toxicity in C57BL/6J mouse implanted with mouse B16-F10 cells assessed as lung damage at 60 mg/kg, IG administered for 12 days H and E staining based histopathological analysis; type: organism-based; conditions: in vivo, po, 288 h, time 12 day
B16-F10 [16] = assay: Antitumor activity against mouse B16-F10 cells xenografted in C57BL/6J mouse assessed as reduction in tumor heterogeneity at 60 mg/kg, IG administered for 12 days by H and E staining based histopathological analysis; type: functional, organism-based; conditions: time 12.0 day
[17] = Toxicity in C57BL/6J mouse implanted with mouse B16-F10 cells assessed as liver damage at 60 mg/kg, IG administered for 12 days H and E staining based histopathological analysis; type: organism-based; conditions: in vivo, po, 288 h, time 12 day
DNA = assay: Binding affinity to nuclear DNA in human HepG2 cells assessed as colocalization of acridine orange-test compound signal at 5 uM by confocal fluorescence microscopic analysis; type: functional, cell-based
Calf thymus DNA [18] = assay: Binding affinity to calf thymus DNA assessed as change in entropy at 500 microM by isothermal titration calorimetric analysis; type: nucleic-acid assay; conditions: Bos taurus
Calf thymus DNA [19] = assay: Binding affinity to calf thymus DNA assessed as increase in absorption at 20 uM by UV-vis absorption spectroscopy; type: nucleic-acid assay; conditions: Bos taurus

Histone deacetylase 1, sequence (Q13547 whole entry): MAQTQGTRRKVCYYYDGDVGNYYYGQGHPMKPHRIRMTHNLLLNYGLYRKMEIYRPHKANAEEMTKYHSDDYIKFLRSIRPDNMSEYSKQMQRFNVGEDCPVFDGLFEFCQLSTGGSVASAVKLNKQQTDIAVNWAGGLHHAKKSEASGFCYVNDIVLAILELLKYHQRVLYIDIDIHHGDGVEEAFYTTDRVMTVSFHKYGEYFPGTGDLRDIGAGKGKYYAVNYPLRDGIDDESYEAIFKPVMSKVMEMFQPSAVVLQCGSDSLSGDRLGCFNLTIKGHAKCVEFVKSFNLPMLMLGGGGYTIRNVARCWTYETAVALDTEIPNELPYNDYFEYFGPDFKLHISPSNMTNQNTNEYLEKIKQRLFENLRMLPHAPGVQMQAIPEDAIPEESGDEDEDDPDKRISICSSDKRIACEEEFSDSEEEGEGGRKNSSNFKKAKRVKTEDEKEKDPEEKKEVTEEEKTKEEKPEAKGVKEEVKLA
Histone deacetylase 2, sequence (Q92769 whole entry): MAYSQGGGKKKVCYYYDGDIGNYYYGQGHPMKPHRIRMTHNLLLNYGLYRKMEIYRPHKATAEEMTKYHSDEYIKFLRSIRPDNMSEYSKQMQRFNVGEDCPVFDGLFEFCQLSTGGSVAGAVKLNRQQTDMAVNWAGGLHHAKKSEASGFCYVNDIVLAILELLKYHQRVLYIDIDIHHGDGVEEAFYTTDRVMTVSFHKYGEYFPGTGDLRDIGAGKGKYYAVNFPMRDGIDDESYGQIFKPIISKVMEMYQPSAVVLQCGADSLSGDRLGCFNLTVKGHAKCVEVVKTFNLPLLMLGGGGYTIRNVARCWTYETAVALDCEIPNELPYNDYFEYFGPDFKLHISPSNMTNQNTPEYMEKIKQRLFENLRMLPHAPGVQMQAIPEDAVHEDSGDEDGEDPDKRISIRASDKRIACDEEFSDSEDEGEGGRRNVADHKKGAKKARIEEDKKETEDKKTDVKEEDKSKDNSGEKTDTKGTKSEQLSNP

O=C(COc1cccc(-c2nc3ccc(-c4nc5ccccc5[nH]4)cc3[nH]2)c1)NO
IC50 (Histone deacetylase): > 1000 nM

O=C(CCCCCOc1cccc(-c2nc3ccccc3[nH]2)c1)NO
IC50 (Histone deacetylase): 118.6 nM

O=C(CCCCOc1ccc(-c2nc3ccc(-c4nc5ccccc5[nH]4)cc3[nH]2)cc1)NO
IC50 (Histone deacetylase): 218.8 nM

O=C(CCCOc1ccc(-c2nc3ccccc3[nH]2)cc1)NO
IC50 (Histone deacetylase): 981.3 nM

O=C(CCCOc1cccc(-c2nc3ccccc3[nH]2)c1)NO
IC50 (Histone deacetylase): 490.4 nM

O=C(CCCCCOc1ccc(-c2nc3ccc(-c4nc5ccccc5[nH]4)cc3[nH]2)cc1)NO
IC50 (Histone deacetylase): 43.62 nM

O=C(CCCCCCCOc1cccc(-c2nc3ccc(-c4nc5ccccc5[nH]4)cc3[nH]2)c1)NO
pIC50 (KG-1 [1]): 5.80
pIC50 (HEL): 5.64
pIC50 (Histone deacetylase 2): 7.09
IC50 (Histone deacetylase): 7.3 nM
pIC50 [2]: 7.64
pIC50 (Histone deacetylase 1): 7.33
pIC50 (HepG2): 4.80
pIC50 (K562): 5.54
pIC50 (PC-3): 5.16
pIC50 (Histone deacetylase 8): < 4.70

O=C(CCCCCCOc1ccc(-c2nc3ccccc3[nH]2)cc1)NO
IC50 (Histone deacetylase): 40.3 nM

O=C(CCCCCCCOc1ccc(-c2nc3ccc(-c4nc5ccccc5[nH]4)cc3[nH]2)cc1)NO
IC50 (Histone deacetylase): 20.1 nM

O=C(CCCCOc1cccc(-c2nc3ccc(-c4nc5ccccc5[nH]4)cc3[nH]2)c1)NO
IC50 (Histone deacetylase): 304.3 nM

O=C(CCCCOc1ccc(-c2nc3ccccc3[nH]2)cc1)NO
IC50 (Histone deacetylase): 189.1 nM

O=C(CCCCCOc1cccc(-c2nc3ccc(-c4nc5ccccc5[nH]4)cc3[nH]2)c1)NO
IC50 (Histone deacetylase): 27.4 nM

CN1CCN(c2ccc3nc(-c4ccc5nc(-c6ccc(O)cc6)[nH]c5c4)[nH]c3c2)CC1
pIC50 (KG-1 [1]): 4.38

O=C(CCCCCCC(=O)Nc1ccccc1)NO [VORINOSTAT]
Activity [3]: Non-Toxic
Activity (B16-F10 [4]): Active
Activity (KG-1 [5]): inactive
pIC50 (KG-1 [1]): 7.15
Activity (B16-F10 [6]): Active
Activity (B16-F10 [7]): Active
Activity (KG-1 [8]): inactive
Activity [9]: Non-Toxic
Activity [10]: Toxic
Activity (KG-1 [11]): 18.2%
Activity (B16-F10 [12]): Active
Activity (B16-F10 [13]): Active
Activity [14]: Non-Toxic
Activity [15]: Non-Toxic
Activity (B16-F10 [16]): Active
Activity [17]: Non-Toxic

O=C(CCCOc1ccc(-c2nc3ccc(-c4nc5ccccc5[nH]4)cc3[nH]2)cc1)NO
IC50 (Histone deacetylase): > 1000 nM

O=C(CCCOc1cccc(-c2nc3ccc(-c4nc5ccccc5[nH]4)cc3[nH]2)c1)NO
IC50 (Histone deacetylase): 50 nM

O=C(COc1cccc(-c2nc3ccccc3[nH]2)c1)NO
IC50 (Histone deacetylase): > 1000 nM

O=C(CCCCCCCOc1ccc(-c2nc3ccccc3[nH]2)cc1)NO
IC50 (Histone deacetylase): 49.3 nM

O=C(CCCCCCOc1ccc(-c2nc3ccc(-c4nc5ccccc5[nH]4)cc3[nH]2)cc1)NO
Activity (DNA): Active
-TdeltaS (Calf thymus DNA [18]): 45.3 kcal/mol
pIC50 (KG-1 [1]): 5.85
pIC50 (HEL): 5.72
pIC50 (Histone deacetylase 2): 7.49
IC50 (Histone deacetylase): 7.6 nM
pIC50 [2]: 7.54
pIC50 (Histone deacetylase 1): 7.51
pIC50 (HepG2): 4.96
pIC50 (K562): 6.29
pIC50 (PC-3): 5.36
Activity (Calf thymus DNA [19]): Active
pIC50 (Histone deacetylase 8): < 4.70

O=C(COc1ccc(-c2nc3ccccc3[nH]2)cc1)NO
IC50 (Histone deacetylase): 156.7 nM

O=C(CCCCCCOc1cccc(-c2nc3ccc(-c4nc5ccccc5[nH]4)cc3[nH]2)c1)NO
IC50 (Histone deacetylase): 17.9 nM

O=C(CCCCCOc1ccc(-c2nc3ccccc3[nH]2)cc1)NO
IC50 (Histone deacetylase): 76 nM

O=C(COc1ccc(-c2nc3ccc(-c4nc5ccccc5[nH]4)cc3[nH]2)cc1)NO
IC50 (Histone deacetylase): > 1000 nM

O=C(CCCCOc1cccc(-c2nc3ccccc3[nH]2)c1)NO
IC50 (Histone deacetylase): 194.4 nM
